Target: T1, mAChR M4 (Homo sapiens, UniProt P08173)
T1 construct: expressed in transfected cells; host or cells: CHO-K1 cells stably transfected with M4 cDNA and chimeric G-protein Gqi5
T1 sequence (P08173 1-479): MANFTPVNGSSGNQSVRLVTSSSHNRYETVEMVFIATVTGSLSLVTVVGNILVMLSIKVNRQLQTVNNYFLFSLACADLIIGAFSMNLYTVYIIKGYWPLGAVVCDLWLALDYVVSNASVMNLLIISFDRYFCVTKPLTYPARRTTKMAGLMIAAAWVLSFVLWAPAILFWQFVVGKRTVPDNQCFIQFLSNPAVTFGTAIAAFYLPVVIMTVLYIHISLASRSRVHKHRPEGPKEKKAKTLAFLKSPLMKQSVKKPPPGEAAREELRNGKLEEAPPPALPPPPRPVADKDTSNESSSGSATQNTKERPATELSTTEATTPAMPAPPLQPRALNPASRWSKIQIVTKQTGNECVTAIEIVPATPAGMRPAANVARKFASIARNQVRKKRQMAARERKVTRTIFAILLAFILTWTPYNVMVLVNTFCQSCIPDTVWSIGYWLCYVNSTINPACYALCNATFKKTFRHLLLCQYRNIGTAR
Assay: mAChR M4 cell-based functional assay (calcium mobilization, potentiation of EC20 acetylcholine response)
Details: for EC50: mAChR M4 cell-based functional assay, >10,000 estimated for low potency compounds without plateau, read-out: EC50

Structure (SMILES)	Emax at 30 µM (% ACh maximum at 30 μM) [%]	EC50 [nM]	Emax (%)* (% ACh maximum at 30 μM) [%]
COC1(CCC2OCCCO2)CN(C(=O)c2sc3nnc(C)c(C)c3c2N)C1 [Example B298]	43	4300	–
Cc1nnc2sc(C(=O)NCCNC(=O)c3ccncc3)c(N)c2c1C [Example B364]	49	3900	–
CCCCCC(=O)N1CCC(NC(=O)c2sc3nnc(C)c(C)c3c2N)C1 (stereo not drawn) [Example B232]	77	530	–
Cc1nnc2sc(C(=O)NC3COC3)c(N)c2c1C [Example B24]	80	520	–
Cc1nnc2sc(C(=O)NCc3ccc(-c4cc(O)ccc4Cl)cc3)c(N)c2c1C [Example B500]	72	1800	–
COC1CCN(C(=O)c2sc3nnc(C)c(C)c3c2N)C1 (stereo not drawn) [Example B272]	55	> 10000	–
Cc1nnc2sc(C(=O)NCc3ccc(S(=O)(=O)C(C)(C)C(F)(F)F)cc3)c(N)c2c1C [Example B108]	61	44	–
Cc1nnc2sc(C(=O)NCc3ccc(Br)cn3)c(N)c2c1C [Example B471]	60	390	–
COc1ccc(CNC(=O)c2sc3nnc4c(c3c2N)CCCC4)cc1 [Example B52]	54	77	–
Cc1nnc2sc(C(=O)N3CC(Cc4ccccc4)C3)c(N)c2c1C [Example B275]	65	200	–
Cc1nnc2sc(C(=O)NCc3ccc(-c4cccnc4F)cc3)c(N)c2c1C [Example B454]	66	19	–
Cc1nnc2sc(C(=O)N3CCC[C@H]3C)c(N)c2c1C [Example B382]	45	> 10000	–
Cc1nnc2sc(C(=O)NCc3ccc(=O)n(C)c3)c(N)c2c1C [Example B444]	65	> 10000	–
COc1ccccc1C1(OC)CN(C(=O)c2sc3nnc(C)c(C)c3c2N)C1 [Example B294]	43	1100	–
Cc1nnc2sc(C(=O)NCCNC(=O)Oc3ccccc3)c(N)c2c1C [Example B354]	–	2000	73
Cc1nnc2sc(C(=O)NC3CN(C(=O)OC(C)(C)C)C3)c(N)c2c1C [Example B83]	58	29	–
Cc1nnc2sc(C(=O)N3CC4CN(C5CCCC5)CC4C3)c(N)c2c1C (stereo not drawn) [Example B286]	19	4800	–
COc1cccc(C(=O)N2CC(NC(=O)c3sc4nnc(C)c(C)c4c3N)C2)c1 [Example B127]	82	85	–
Cc1nnc2sc(C(=O)NC3CN(C(=O)c4c(F)cccc4F)C3)c(N)c2c1C [Example B408]	65	270	–
Cc1nnc2sc(C(=O)NCCN(C)C(=O)C3CC3)c(N)c2c1C [Example B343]	33	> 10000	–
Cc1nnc2sc(C(=O)NCc3ccc(-n4ccccc4=O)c(F)c3)c(N)c2c1C [Example B483]	69	47	–
Cc1nnc2sc(C(=O)NCc3ccc(-c4cnn(C)c4)cc3)c(N)c2c1C [Example B447]	64	> 10000	–
Cc1nnc2sc(C(=O)N3CCC(NC(=O)N4CCOCC4)C3)c(N)c2c1C (stereo not drawn) [Example B201]	56	> 10000	–
Cc1cc(CNC(=O)c2sc3nnc(C)c(C)c3c2N)ccn1 [Example B4]	96	640	–
Cc1ccc(S(=O)(=O)NC2CCN(C(=O)c3sc4nnc(C)c(C)c4c3N)C2)s1 (stereo not drawn) [Example B257]	62	1100	–
Cc1nnc2sc(C(=O)NCc3ccc4c(c3)OCO4)c(N)c2c1C [Example B12]	90	93	–

Structure (SMILES)	Emax at 30 µM (% ACh maximum at 30 μM) [%]	EC50 [nM]	Emax (%)* (% ACh maximum at 30 μM) [%]
Cc1nnc2sc(C(=O)NC3CCN(c4cccc(Cl)c4)C3)c(N)c2c1C (stereo not drawn) [Example B268]	68	180	–
Cc1nnc2sc(C(=O)N3CC4(C3)CN(S(=O)(=O)c3ccccc3)C4)c(N)c2c1C [Example B394]	47	1100	–
Cc1nnc2sc(C(=O)NCc3ccc(-c4cncnc4)cc3)c(N)c2c1C [Example B462]	65	38	–
Cc1nnc2sc(C(=O)NCc3ccco3)c(N)c2c1C [Example B102]	81	1300	–
Cc1c(CN2CCOCC2)nnc2sc(C(=O)NCc3ccc(S(=O)(=O)C(F)(F)F)cc3)c(N)c12 [Example B324]	72	460	–
Cc1nnc2sc(C(=O)NCc3ccc(CN4CCCC4)cc3)c(N)c2c1C [Example B492]	76	38	–
Cc1nnc2sc(C(=O)N3CC(F)(c4ccc(-c5ccncc5)cc4)C3)c(N)c2c1C [Example B318]	35	290	–
Nc1c(C(=O)NCC2CC2)sc2nnc3c(c12)CCCC3 [Example B54]	37	790	–
CCCOC(=O)NC1CCN(C(=O)c2sc3nnc(C)c(C)c3c2N)C1 (stereo not drawn) [Example B210]	58	> 10000	–
Cc1nnc2sc(C(=O)NCc3ccc4ccccc4c3)c(N)c2c1C [Example B86]	62	80	–
Cc1nnc2sc(C(=O)NCc3ccc(OC(F)F)cc3)c(N)c2c1C [Example B168]	76	13	–
Cc1nnc2sc(C(=O)N3CCC(NC(=O)C4CC4)C3)c(N)c2c1C (stereo not drawn) [Example B236]	66	5000	–
Cc1nnc2sc(C(=O)N3CCC(O)(c4ccccc4)C3)c(N)c2c1C (stereo not drawn) [Example B279]	48	4300	–
COc1ccc(C(=O)N2CC(NC(=O)c3sc4nnc(C)c(C)c4c3N)C2)cc1 [Example B400]	63	52	–
Cc1nnc2sc(C(=O)N3CC(NS(=O)(=O)c4cn(C)cn4)C3)c(N)c2c1C [Example B174]	51	6700	–
Cc1nnc2sc(C(=O)NC3CN(S(=O)(=O)CC(F)(F)F)C3)c(N)c2c1C [Example B119]	68	82	–
CC(=O)NCCNC(=O)c1sc2nnc(C)c(C)c2c1N [Example B366]	32	> 10000	–
Cc1nnc2sc(C(=O)NCc3ccc([S+]([O-])C(F)F)cc3)c(N)c2c1C (single isomer, unassigned) [Example B491]	63	120	–
Cc1nnc2sc(C(=O)NC3CN(c4nccs4)C3)c(N)c2c1C [Example B430]	58	2100	–
Cc1nnc2sc(C(=O)NC3CN(C(=O)C4CC4)C3)c(N)c2c1C [Example B135]	73	230	–
Cc1nnc2sc(C(=O)NCc3ccc(-c4ccc(F)nc4F)cc3)c(N)c2c1C [Example B495]	72	210	–
Cc1nnc2sc(C(=O)NCCN(C)S(C)(=O)=O)c(N)c2c1C [Example B344]	41	> 10000	–
Cc1nnc2sc(C(=O)NC3CCN(c4ccc(Cl)cc4)C3)c(N)c2c1C (stereo not drawn) [Example B274]	69	41	–
Cc1nnc2sc(C(=O)N3CC4CN(c5cccc(F)n5)CC4C3)c(N)c2c1C (stereo not drawn) [Example B442]	66	310	–
Cc1nnc2sc(C(=O)NCc3ccc4c(c3)OCCO4)c(N)c2c1C [Example B29]	76	30	–
